Laboratory results as given in patent US20030176314A1, “Compounds for the treatment of pain” (priority 2001, published 2003).
Where two headings read alike, the source gives them in different places.

Experiments:
rat NPFF2 receptor [1] = biological target: T1, rat NPFF2 receptor (Rattus norvegicus, UniProt Q9EQD2); test: Functional assay (agonist potency, intrinsic activity) at cloned rat NPFF2 receptor; type: cell-based; conditions: for rNPFF2 IA: Table 7, intrinsic activity; for Functional Activity rNPFF2 I.A. %: percent of maximum response elicited by neuropeptide FF; for EC50: read-out: Functional Activity rNPFF2 EC50; for classification as agonist or antagonist at the NPFF2 receptor: agonist: IA>15%, antagonist: Ki≦1.2 mM and IA≦15% at the rat cloned NPFF receptors
T1 construct: The full-length NPFF2 was amplified from rat spinal cord cDNA; expressed in transfected cells; host or cells: not given
T1 sequence (Q9EQD2 whole entry): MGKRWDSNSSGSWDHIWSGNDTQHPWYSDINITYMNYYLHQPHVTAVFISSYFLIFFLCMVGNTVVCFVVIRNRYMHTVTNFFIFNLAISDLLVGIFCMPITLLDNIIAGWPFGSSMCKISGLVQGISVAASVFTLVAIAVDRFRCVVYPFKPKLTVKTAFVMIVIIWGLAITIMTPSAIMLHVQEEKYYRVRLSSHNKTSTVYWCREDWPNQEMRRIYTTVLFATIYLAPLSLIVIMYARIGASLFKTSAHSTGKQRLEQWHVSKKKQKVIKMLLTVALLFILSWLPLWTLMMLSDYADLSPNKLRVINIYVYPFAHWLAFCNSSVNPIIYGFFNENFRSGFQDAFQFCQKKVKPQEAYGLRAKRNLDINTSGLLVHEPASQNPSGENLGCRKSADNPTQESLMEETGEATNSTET

rat NPFF1 receptor [2] = biological target: T2, rat NPFF1 receptor (Rattus norvegicus, UniProt Q9EP86); test: Functional assay (agonist potency, intrinsic activity) at cloned rat NPFF1 receptor; type: cell-based; conditions: for rNPFF1 IA: Table 7, intrinsic activity; for Functional Activity rNPFF1 I.A. %: percent of maximum response elicited by neuropeptide FF; for classification as agonist or antagonist at the NPFF1 receptor: agonist: IA>15%, antagonist: Ki≦1.2 mM and IA≦15% at the rat cloned NPFF receptors; for EC50: read-out: Functional Activity rNPFF1 EC50
T2 construct: expressed in transfected cells; host or cells: not given
T2 sequence (Q9EP86 whole entry): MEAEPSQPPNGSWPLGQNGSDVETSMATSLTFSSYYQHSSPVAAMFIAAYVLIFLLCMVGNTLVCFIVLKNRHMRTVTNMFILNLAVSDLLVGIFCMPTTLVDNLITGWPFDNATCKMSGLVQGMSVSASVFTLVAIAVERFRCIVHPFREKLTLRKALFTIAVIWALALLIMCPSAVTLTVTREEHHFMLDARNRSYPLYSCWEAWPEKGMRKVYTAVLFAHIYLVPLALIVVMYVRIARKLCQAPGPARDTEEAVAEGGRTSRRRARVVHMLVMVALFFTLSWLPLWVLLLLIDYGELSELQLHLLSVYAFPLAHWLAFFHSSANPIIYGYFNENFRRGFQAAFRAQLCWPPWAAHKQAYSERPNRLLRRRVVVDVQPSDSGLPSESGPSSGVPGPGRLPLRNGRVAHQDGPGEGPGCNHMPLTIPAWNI

rat NPFF2 receptor [3] = biological target: T1, rat NPFF2 receptor; test: Competition binding at cloned rat NPFF2 receptor ([125I]1DMeNPFF displacement); conditions: read-out: Ki Values rNPFF2
Description: (§1) Transfected cells from culture flasks are scraped into 5 ml of 20 mM Tris-HCl, 5 mM EDTA, pH 7.5, and lysed by sonication. The cell lysates are centrifuged at 1000 rpm for 5 min. at 4° C., and the supernatant is centrifuged at 30,000×g for 20 min. at 4° C. […] Optimal membrane suspension dilutions, defined as the protein concentration required to bind less than 10% of the added radioligand, […], unlabeled compounds, and binding buffer to a final volume of 250 μl. In equilibrium saturation binding assays membrane preparations are incubated in the presence of increasing concentrations of [^3H]-labeled compound.
(§2) Competition assay: 50 pM radioligand, 10-12 points. Binding reaction mixtures are incubated for 2 hr at 25° C., and the reaction stopped by filtration through a double layer of GF filters treated with 0.1% polyethyleneimine, using a cell harvester. Wash buffer: 50 mM Tris-HCl, 0.1% BSA. Radioactivity may be measured by scintillation counting and data are analyzed by a computerized non-linear regression program. Non-specific binding is defined as the amount of radioactivity remaining after incubation of membrane protein in the presence of 1 μM final concentration […]. Protein concentration may be measured by the Bradford method using Bio-Rad Reagent, with bovine serum albumin as a standard.

[4] = biological target: T3, norepinephrine (NE) transporter (Rattus norvegicus, UniProt Q63380); test: Binding at native norepinephrine transporter (NE uptake); conditions: Table 8
T3 construct: evaluated at native, tissue-derived transporters; from tissue
T3 sequence (Q63380 1-617): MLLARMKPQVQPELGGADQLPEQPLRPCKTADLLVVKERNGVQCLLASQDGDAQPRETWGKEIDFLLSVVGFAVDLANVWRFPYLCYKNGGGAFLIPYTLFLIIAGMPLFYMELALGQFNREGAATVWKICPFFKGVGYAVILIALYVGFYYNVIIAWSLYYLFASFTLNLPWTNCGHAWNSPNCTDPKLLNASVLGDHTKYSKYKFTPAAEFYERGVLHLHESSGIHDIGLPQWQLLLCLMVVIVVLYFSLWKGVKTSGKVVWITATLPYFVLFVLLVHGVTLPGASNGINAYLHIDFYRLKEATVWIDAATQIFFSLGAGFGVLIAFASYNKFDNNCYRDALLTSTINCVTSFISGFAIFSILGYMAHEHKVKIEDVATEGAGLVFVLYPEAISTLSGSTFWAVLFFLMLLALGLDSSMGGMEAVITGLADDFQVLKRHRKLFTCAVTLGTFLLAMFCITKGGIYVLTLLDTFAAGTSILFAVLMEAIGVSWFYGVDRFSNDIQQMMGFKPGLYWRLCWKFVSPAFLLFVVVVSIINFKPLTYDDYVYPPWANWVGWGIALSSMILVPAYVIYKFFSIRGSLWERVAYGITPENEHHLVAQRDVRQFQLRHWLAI
Description: (§3) Transporters: The binding properties of compounds were evaluated at native, tissue-derived transporters, namely serotonin (5HT) transporter and norepinephrine (NE) transporter, according to protocols described in Owens (1997), the disclosure of which is hereby incorporated by reference in its entirety into this application.
(§4) The binding affinity (Ki) of these compounds were tested according to the protocols described herein at the following receptors; human α1A, α1B, α1D, α2A, α2B, and α2C adrenergic receptors; human Y1, Y2, Y4, and Y5 receptors; and N-Methyl-D-aspartic acid (NMDA) receptor channels. The binding interactions of these compounds were additionally tested at the norepinephrine (NE) transporter (NE uptake) and serotonin (5-hydroxytryptamine (5HT)) transporter (5HT uptake) according to protocols described herein

[5] = biological target: T4, serotonin (5HT) transporter (Rattus norvegicus, UniProt P31652); test: Binding at native serotonin transporter (5HT uptake); conditions: Table 8
T4 construct: evaluated at native, tissue-derived transporters; from tissue
T4 sequence (P31652 whole entry): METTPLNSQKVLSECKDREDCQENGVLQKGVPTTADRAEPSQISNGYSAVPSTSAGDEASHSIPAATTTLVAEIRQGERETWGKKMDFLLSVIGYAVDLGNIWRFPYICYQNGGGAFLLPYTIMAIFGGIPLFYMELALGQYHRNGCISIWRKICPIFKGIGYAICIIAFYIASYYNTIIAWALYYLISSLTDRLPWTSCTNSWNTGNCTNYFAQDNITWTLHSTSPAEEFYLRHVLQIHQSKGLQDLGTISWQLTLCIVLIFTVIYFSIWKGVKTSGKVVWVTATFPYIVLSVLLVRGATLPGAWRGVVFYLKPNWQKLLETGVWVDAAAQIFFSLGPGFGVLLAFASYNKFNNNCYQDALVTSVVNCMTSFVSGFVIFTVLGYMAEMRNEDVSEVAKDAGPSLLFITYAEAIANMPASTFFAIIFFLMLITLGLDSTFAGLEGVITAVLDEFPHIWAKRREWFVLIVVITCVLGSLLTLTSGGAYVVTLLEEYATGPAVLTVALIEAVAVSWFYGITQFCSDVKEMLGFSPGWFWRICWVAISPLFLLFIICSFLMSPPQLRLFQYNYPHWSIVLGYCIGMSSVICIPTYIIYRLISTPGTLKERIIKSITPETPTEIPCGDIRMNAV
Description: as §3, §4

rat NPFF1 receptor [6] = biological target: T2, rat NPFF1 receptor; test: Competition binding at cloned rat NPFF1 receptor ([125I]1DMeNPFF displacement); conditions: read-out: Ki Values rNPFF1
Description: as §1, with “radioligand, are” for “radioligand,”, “In equilibrium saturation binding assays membrane preparations are incubated in the presence of increasing concentrations of [^3H]-labeled compound.” left out
as §2

[7] = Table 5, D-Arg- or D-Phe-containing compounds

Compound	rNPFF2 IA (rat NPFF2 receptor [1]) [% NPFF]	rNPFF1 IA (rat NPFF1 receptor [2]) [% NPFF]	Ki (rat NPFF2 receptor [3]; [7]) [µM]	Functional Activity rNPFF2 I.A. % (rat NPFF2 receptor [1]; Table 5) [%]	EC50 (rat NPFF2 receptor [1]; Table 5) [µM]	Ki (rat NPFF1 receptor [6]; [7]) [µM]	Functional Activity rNPFF1 I.A. % (rat NPFF1 receptor [2]; Table 5) [%]	EC50 (rat NPFF1 receptor [2]; Table 5) [µM]	further results
Cc1nc(NC(=N)N)nc2ccc(Cc3ccccc3)cc12 [Compound 2003A, N-(6-benzyl-4-methyl-2-quinazolinyl)guanidine]	89	56	–	–	–	–	–	–	–
COc1ccc(C)cc1S(=O)(=O)N[C@@H](CCCNC(=N)N)C(=O)N[C@@H](Cc1ccccc1)C(N)=O [Compound 2003B]	–	–	–	–	–	–	–	–	Ki (rat NPFF2 receptor [3]; Table 4): > 10 µM; Functional Activity rNPFF2 I.A. % (rat NPFF2 receptor [1]; Table 4): 52%; EC50 (rat NPFF2 receptor [1]; Table 4): > 3.16 µM; classification as agonist or antagonist at the NPFF2 receptor (rat NPFF2 receptor [1]): agonists; Functional Activity rNPFF1 I.A. % (rat NPFF1 receptor [2]; Table 4): 102%; classification as agonist or antagonist at the NPFF1 receptor (rat NPFF1 receptor [2]): agonists
CCCCc1ccc2nc(NC(=N)N)nc(C)c2c1 [Compound 2004A, N-(6-butyl-4-methyl-2-quinazolinyl)guanidine]	101	40	–	–	–	–	–	–	–
CCCCCCc1ccc2nc(NC(=N)N)nc(C)c2c1 [Compound 2005A, N-(6-hexyl-4-methyl-2-quinazolinyl)guanidine]	81	56	–	–	–	–	–	–	–
CCCCCCCc1ccc2nc(NC(=N)N)nc(C)c2c1 [Compound 2006A, N-(6-heptyl-4-methyl-2-quinazolinyl)guanidine]	47	38	–	–	–	–	–	–	–
Cc1ccc2c(C)nc(NC(=N)N)nc2c1 [Compound 3001A, N-(4,7-dimethyl-2-quinazolinyl)guanidine]	–	–	–	–	–	–	–	–	classification as agonist or antagonist at the NPFF2 receptor (rat NPFF2 receptor [1]): antagonists; classification as agonist or antagonist at the NPFF1 receptor (rat NPFF1 receptor [2]): antagonists; Ki [4]: 21.4 µM; Ki [5]: 22.6 µM
N=C(N)NCCC[C@@H](NS(=O)(=O)c1cccc2ccccc12)C(=O)N[C@@H](Cc1ccccc1)C(N)=O [Compound 3001B]	–	–	2.86	79	0.378	0.046	1	> 10	classification as agonist or antagonist at the NPFF2 receptor (rat NPFF2 receptor [1]): agonist; classification as agonist or antagonist at the NPFF1 receptor (rat NPFF1 receptor [2]): antagonist
CCCCc1ccc2nc(NC(=N)N)cc(C)c2c1 [Compound 5001A, N-(6-butyl-4-methyl-2-quinolinyl)guanidine]	82	28	–	–	–	–	–	–	–
N1-[(1R)-2-Amino-1-benzyl-2-oxoethyl]-(2S)-{[amino(imino)methyl]amino}-2-[2, 6-difluorophenyl)sulfonyl]amino]pentanamide [Compound 1032B]	–	–	> 10	61	2.76	1.29	47	0.644	–
N1-[(1R)-2-Amino-1-benzyl-2-oxoethyl]-(2S)-{[amino(imino)methyl]amino}-2-[2-bromophenyl) sulfonyl]amino}pentanamide [Compound 1031B]	–	–	6.03	24	1.57	2.57	32	0.856	–
N1-[(1S)-2-Amino-1-benzyl-2-oxoethyl]-(2R)-{[amino(imino)methyl]amino}-2-2-bromophenyl) sulfonyl]amino}pentanamide [Compound 1030B]	–	–	6.2	71	1.64	0.251	35	0.655	–
N1-[(1S)-2-Amino-1-benzyl-2-oxoethyl]-(2S)-{[amino(imino)methyl]amino}-2-[pentafluorophenyl)sulfonyl]amino}pentanamide [Compound 1024B]	–	–	–	–	–	–	–	–	Ki (rat NPFF2 receptor [3]; Table 4): 5.4 µM; Functional Activity rNPFF2 I.A. % (rat NPFF2 receptor [1]; Table 4): 43%; EC50 (rat NPFF2 receptor [1]; Table 4): > 3.16 µM; Ki (rat NPFF1 receptor [6]; Table 4): 0.486 µM; Functional Activity rNPFF1 I.A. % (rat NPFF1 receptor [2]; Table 4): 69%; EC50 (rat NPFF1 receptor [2]; Table 4): 0.72 µM
